Assays:
Assay in all cases: relative viability (nuclei count vs DMSO), 5 days (fraction); higher = more cells survive
NCI-H3122 = tested on: NCI-H3122
Procedure, shortened: (§1)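 After 5 days of treatment, lung cancer cells in 1536-well plates were fixed and stained in a single step (final 0.05% Triton X-100, 1% formaldehyde, 1 ug/ml Hoechst) and their nuclei counted on 4× images. Treatment had been applied by pin tool the day after seeding as one drug alone or as a fixed anchor-drug dose with five library-drug doses (not always all listed) in √10 steps. Relative viability is the nuclei count of treated wells divided by that of vehicle wells, and values are medians of duplicate plates.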

LU99A = tested on: LU99A
Procedure, shortened: as §1

LOU-NH91 = tested on: LOU-NH91
Procedure, shortened: as §1

NCI-H1651 = tested on: NCI-H1651
Procedure, shortened: as §1

NCI-H1755 = tested on: NCI-H1755
Procedure, shortened: as §1

NCI-H460 = tested on: NCI-H460
Procedure, shortened: as §1

NCI-H2087 = tested on: NCI-H2087
Procedure, shortened: as §1

NCI-H2228 = tested on: NCI-H2228
Procedure, shortened: as §1

HCC-78 = tested on: HCC-78
Procedure, shortened: as §1

CAL-12T = tested on: CAL-12T
Procedure, shortened: as §1

LC-2-ad = tested on: LC-2-ad
Procedure, shortened: as §1

NCI-H1944 = tested on: NCI-H1944
Procedure, shortened: as §1

NCI-H1395 = tested on: NCI-H1395
Procedure, shortened: as §1

ABC-1 = tested on: ABC-1
Procedure, shortened: as §1

PC-3 [JPC-3] = tested on: PC-3 [JPC-3]
Procedure, shortened: as §1

RERF-LC-KJ = tested on: RERF-LC-KJ
Procedure, shortened: as §1

NCI-H1793 = tested on: NCI-H1793
Procedure, shortened: as §1

UMC-11 = tested on: UMC-11
Procedure, shortened: as §1

NCI-H2170 = tested on: NCI-H2170
Procedure, shortened: as §1

NCI-H2405 = tested on: NCI-H2405
Procedure, shortened: as §1

ChaGo-K-1 = tested on: ChaGo-K-1
Procedure, shortened: as §1

HCC-366 = tested on: HCC-366
Procedure, shortened: as §1

Question: What does the source list for `O=c1cc(N2CCOCC2)oc2c(-c3cccc4c3sc3ccccc34)cccc12` + O=C(CCCCCCC(=O)Nc1ccccc1)NO [Vorinostat] (partner 1 µM)?
Answer: relative viability (NCI-H3122; first compound 0.01 µM): 0.933; relative viability (NCI-H3122; first compound 0.03162 µM): 1.02; relative viability (NCI-H3122; first compound 0.1 µM): 1.04; relative viability (NCI-H3122; first compound 0.3162 µM): 0.895; relative viability (NCI-H3122; first compound 1 µM): 1.02; relative viability (LU99A; first compound 0.01 µM): 0.489; relative viability (LU99A; first compound 0.03162 µM): 0.491; relative viability (LU99A; first compound 0.1 µM): 0.446; relative viability (LU99A; first compound 0.3162 µM): 0.512; relative viability (LU99A; first compound 1 µM): 0.491; relative viability (LOU-NH91; first compound 0.01 µM): 0.623; relative viability (LOU-NH91; first compound 0.03162 µM): 0.881; relative viability (LOU-NH91; first compound 0.1 µM): 0.894; relative viability (LOU-NH91; first compound 0.3162 µM): 1.04; relative viability (LOU-NH91; first compound 1 µM): 0.904; relative viability (NCI-H1651; first compound 0.01 µM): 0.55; relative viability (NCI-H1651; first compound 0.03162 µM): 0.556; relative viability (NCI-H1651; first compound 0.1 µM): 0.528; relative viability (NCI-H1651; first compound 0.3162 µM): 0.567; relative viability (NCI-H1651; first compound 1 µM): 0.489; relative viability (NCI-H1755; first compound 0.01 µM): 0.828; relative viability (NCI-H1755; first compound 0.03162 µM): 0.775; relative viability (NCI-H1755; first compound 0.1 µM): 0.793; relative viability (NCI-H1755; first compound 0.3162 µM): 0.741; relative viability (NCI-H1755; first compound 1 µM): 0.834; relative viability (NCI-H460; first compound 0.01 µM): 0.68; relative viability (NCI-H460; first compound 0.03162 µM): 0.773; relative viability (NCI-H460; first compound 0.1 µM): 0.957; relative viability (NCI-H460; first compound 0.3162 µM): 0.655; relative viability (NCI-H460; first compound 1 µM): 0.75; relative viability (NCI-H2087; first compound 0.01 µM): 0.474; relative viability (NCI-H2087; first compound 0.03162 µM): 0.637; relative viability (NCI-H2087; first compound 0.1 µM): 0.8; relative viability (NCI-H2087; first compound 0.3162 µM): 0.64; relative viability (NCI-H2087; first compound 1 µM): 0.745; relative viability (NCI-H2228; first compound 0.01 µM): 0.669; relative viability (NCI-H2228; first compound 0.03162 µM): 0.896; relative viability (NCI-H2228; first compound 0.1 µM): 0.562; relative viability (NCI-H2228; first compound 0.3162 µM): 0.651; relative viability (NCI-H2228; first compound 1 µM): 0.722; relative viability (HCC-78; first compound 0.01 µM): 0.428; relative viability (HCC-78; first compound 0.03162 µM): 0.406; relative viability (HCC-78; first compound 0.1 µM): 0.44; relative viability (HCC-78; first compound 0.3162 µM): 0.464; relative viability (HCC-78; first compound 1 µM): 0.48; relative viability (CAL-12T; first compound 0.01 µM): 0.967; relative viability (CAL-12T; first compound 0.03162 µM): 0.828; relative viability (CAL-12T; first compound 0.1 µM): 0.727; relative viability (CAL-12T; first compound 0.3162 µM): 0.748; relative viability (CAL-12T; first compound 1 µM): 0.618; relative viability (LC-2-ad; first compound 0.01 µM): 0.703; relative viability (LC-2-ad; first compound 0.03162 µM): 0.72; relative viability (LC-2-ad; first compound 0.1 µM): 0.798; relative viability (LC-2-ad; first compound 0.3162 µM): 0.647; relative viability (LC-2-ad; first compound 1 µM): 0.741; relative viability (NCI-H1944; first compound 0.01 µM): 0.529; relative viability (NCI-H1944; first compound 0.03162 µM): 0.612; relative viability (NCI-H1944; first compound 0.1 µM): 0.503; relative viability (NCI-H1944; first compound 0.3162 µM): 0.48; relative viability (NCI-H1944; first compound 1 µM): 0.616; relative viability (NCI-H1395; first compound 0.03162 µM): 0.719; relative viability (NCI-H1395; first compound 0.1 µM): 0.565; relative viability (NCI-H1395; first compound 0.3162 µM): 1.05; relative viability (NCI-H1395; first compound 1 µM): 0.635; relative viability (ABC-1; first compound 0.01 µM): 1.36; relative viability (ABC-1; first compound 0.03162 µM): 1.58; relative viability (ABC-1; first compound 0.1 µM): 1.31; relative viability (ABC-1; first compound 0.3162 µM): 1.17; relative viability (ABC-1; first compound 1 µM): 1.02; relative viability (PC-3 [JPC-3]; first compound 0.01 µM): 0.76; relative viability (PC-3 [JPC-3]; first compound 0.03162 µM): 0.774; relative viability (PC-3 [JPC-3]; first compound 0.1 µM): 0.859; relative viability (PC-3 [JPC-3]; first compound 0.3162 µM): 0.896; relative viability (PC-3 [JPC-3]; first compound 1 µM): 0.401; relative viability (RERF-LC-KJ; first compound 0.01 µM): 0.76; relative viability (RERF-LC-KJ; first compound 0.03162 µM): 0.694; relative viability (RERF-LC-KJ; first compound 0.1 µM): 0.775; relative viability (RERF-LC-KJ; first compound 0.3162 µM): 0.64; relative viability (RERF-LC-KJ; first compound 1 µM): 0.707; relative viability (NCI-H1793; first compound 0.01 µM): 0.771; relative viability (NCI-H1793; first compound 0.03162 µM): 0.612; relative viability (NCI-H1793; first compound 0.1 µM): 0.672; relative viability (NCI-H1793; first compound 0.3162 µM): 0.76; relative viability (NCI-H1793; first compound 1 µM): 0.658; relative viability (UMC-11; first compound 0.01 µM): 0.386; relative viability (UMC-11; first compound 0.03162 µM): 0.368; relative viability (UMC-11; first compound 0.1 µM): 0.365; relative viability (UMC-11; first compound 0.3162 µM): 0.429; relative viability (UMC-11; first compound 1 µM): 0.311; relative viability (NCI-H2170; first compound 0.01 µM): 0.804; relative viability (NCI-H2170; first compound 0.03162 µM): 0.882; relative viability (NCI-H2170; first compound 0.1 µM): 0.697; relative viability (NCI-H2170; first compound 0.3162 µM): 0.784; relative viability (NCI-H2170; first compound 1 µM): 0.824; relative viability (NCI-H2405; first compound 0.01 µM): 1.01; relative viability (NCI-H2405; first compound 0.03162 µM): 1.04; relative viability (NCI-H2405; first compound 0.1 µM): 1.04; relative viability (NCI-H2405; first compound 0.3162 µM): 1.01; relative viability (NCI-H2405; first compound 1 µM): 0.736; relative viability (ChaGo-K-1; first compound 0.01 µM): 0.69; relative viability (ChaGo-K-1; first compound 0.03162 µM): 0.785; relative viability (ChaGo-K-1; first compound 0.1 µM): 0.578; relative viability (ChaGo-K-1; first compound 0.3162 µM): 0.813; relative viability (ChaGo-K-1; first compound 1 µM): 0.789; relative viability (HCC-366; first compound 0.01 µM): 0.386; relative viability (HCC-366; first compound 0.03162 µM): 0.362; relative viability (HCC-366; first compound 0.1 µM): 0.339; relative viability (HCC-366; first compound 0.3162 µM): 0.395; relative viability (HCC-366; first compound 1 µM): 0.371

— the supplement of paper PMC10307832
